Measured values taken from patent US20110039721A1, “METHOD FOR PREDICTION ABOUT CARCINOGENICITY OF SUBSTANCE IN RODENT” (Chemicals Evaluation and Research Institute, priority 2007, published 2011).

Legend:
[1] = tested on: mRNA expressed from the genes (A) to (D) in rat liver; test: Behavior of genes (mRNA expression level, oligo-DNA microarray) in rat liver after 28-day oral administration; format: in vivo
Summary of the method: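 Male F344 SPF rats, 5 weeks old, four per group, dosed by oral gavage once daily for 28 days with test chemical or matched-volume solvent. Liver total RNA profiled on oligo-DNA microarray. Change ≥1.5-fold or ≤1/1.5 versus vehicle counted as significant if its direction matched that seen with other carcinogens.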

liver = details: in vivo; cited from earlier work
rodent = details: in vivo; cited from earlier work
[2] = gene group (A), Unigene No. Rn.167075, mRNA vs vehicle control group
[3] = gene group (C), Unigene No. Rn.120914, mRNA vs vehicle control group

Cl[C@H]1[C@H](Cl)[C@H](Cl)[C@@H](Cl)[C@H](Cl)[C@H]1Cl [TS021, α-Hexachlorocyclohexane]
Behavior of gene caused by administration of chemical substance, Gene No. 154 ([1]; rat, in vivo): − | Behavior of gene caused by administration of chemical substance, Gene No. 533 ([1]; rat, in vivo): + | Behavior of gene caused by administration of chemical substance, Gene No. 725 ([1]; rat, in vivo): − | Behavior of gene caused by administration of chemical substance, Gene No. 813 ([1]; rat, in vivo): + | Behavior of gene caused by administration of chemical substance, Gene No. 893 ([1]; rat, in vivo): − | Behavior of gene caused by administration of chemical substance, Gene No. 1119 ([1]; rat, in vivo): − | Behavior of gene caused by administration of chemical substance, Gene No. 1131 ([1]; rat, in vivo): − | Behavior of gene caused by administration of chemical substance, Gene No. 1163 ([1]; rat, in vivo): − | Behavior of gene caused by administration of chemical substance, Gene No. 1334 ([1]; rat, in vivo): − | Behavior of gene caused by administration of chemical substance, Gene No. 1494 ([1]; rat, in vivo): + | Behavior of gene caused by administration of chemical substance, Gene No. 1562 ([1]; rat, in vivo): − | Behavior of gene caused by administration of chemical substance, Gene No. 1741 ([1]; rat, in vivo): + | Behavior of gene caused by administration of chemical substance, Gene No. 1993 ([1]; rat, in vivo): − | Behavior of gene caused by administration of chemical substance, Gene No. 2026 ([1]; rat, in vivo): − | Behavior of gene caused by administration of chemical substance, Gene No. 2045 ([1]; rat, in vivo): + | Behavior of gene caused by administration of chemical substance, Gene No. 2203 ([1]; rat, in vivo): + | Behavior of gene caused by administration of chemical substance, Gene No. 2494 ([1]; rat, in vivo): − | Behavior of gene caused by administration of chemical substance, Gene No. 2546 ([1]; rat, in vivo): − | Behavior of gene caused by administration of chemical substance, Gene No. 3776 ([1]; rat, in vivo): − | Behavior of gene caused by administration of chemical substance, Gene No. 3929 ([1]; rat, in vivo): − | Behavior of gene caused by administration of chemical substance, Gene No. 4095 ([1]; rat, in vivo): + | Behavior of gene caused by administration of chemical substance, Gene No. 4218 ([1]; rat, in vivo): − | Behavior of gene caused by administration of chemical substance, Gene No. 4846 ([1]; rat, in vivo): − | Behavior of gene caused by administration of chemical substance, Gene No. 4973 ([1]; rat, in vivo): + | Behavior of gene caused by administration of chemical substance, Gene No. 5600 ([1]; rat, in vivo): − | Behavior of gene caused by administration of chemical substance, Gene No. 5634 ([1]; rat, in vivo): + | Behavior of gene caused by administration of chemical substance, Gene No. 5726 ([1]; rat, in vivo): − | Behavior of gene caused by administration of chemical substance, Gene No. 5878 ([1]; rat, in vivo): − | Behavior of gene caused by administration of chemical substance, Gene No. 6026 ([1]; rat, in vivo): − | Behavior of gene caused by administration of chemical substance, Gene No. 6182 ([1]; rat, in vivo): + | Behavior of gene caused by administration of chemical substance, Gene No. 6303 ([1]; rat, in vivo): + | Behavior of gene caused by administration of chemical substance, Gene No. 6620 ([1]; rat, in vivo): − | Behavior of gene caused by administration of chemical substance, Gene No. 6742 ([1]; rat, in vivo): + | Liver carcinogenicity (liver): Cr+ | Carcinogenicity (rodent): C+

C=CCc1ccc2c(c1)OCO2 [TS025, Safrole]
Behavior of gene caused by administration of chemical substance, Gene No. 4846 ([1]; gene group (A), Unigene No. Rn.144554, mRNA vs vehicle control group): + | Behavior of gene caused by administration of chemical substance, Gene No. 2026 [1, 2]: − | Behavior of gene caused by administration of chemical substance, Gene No. 4218 [1, 2]: + | Behavior of gene caused by administration of chemical substance, Gene No. 6182 ([1]; gene group (A), Unigene No. Rn.5834, mRNA vs vehicle control group): + | Behavior of gene caused by administration of chemical substance, Gene No. 5600 ([1]; gene group (A), Unigene No. Rn.9836, mRNA vs vehicle control group): + | Behavior of gene caused by administration of chemical substance, Gene No. 1494 ([1]; gene group (B), Unigene No. Rn.1430, mRNA vs vehicle control group): + | Behavior of gene caused by administration of chemical substance, Gene No. 2045 ([1]; gene group (B), Unigene No. Rn.19329, mRNA vs vehicle control group): + | Behavior of gene caused by administration of chemical substance, Gene No. 2203 ([1]; gene group (B), Unigene No. Rn.21240, mRNA vs vehicle control group): + | Behavior of gene caused by administration of chemical substance, Gene No. 533 ([1]; gene group (C), Unigene No. Rn.106184, mRNA vs vehicle control group): + | Behavior of gene caused by administration of chemical substance, Gene No. 725 ([1]; gene group (C), Unigene No. Rn.108075, mRNA vs vehicle control group): + | Behavior of gene caused by administration of chemical substance, Gene No. 1163 ([1]; gene group (C), Unigene No. Rn.11766, mRNA vs vehicle control group): − | Behavior of gene caused by administration of chemical substance, Gene No. 4973 ([1]; gene group (C), Unigene No. Rn.118529, mRNA vs vehicle control group): + | Behavior of gene caused by administration of chemical substance, Gene No. 4095 ([1]; gene group (C), Unigene No. Rn.119024, mRNA vs vehicle control group): + | Behavior of gene caused by administration of chemical substance, Gene No. 1334 [1, 3]: − | Behavior of gene caused by administration of chemical substance, Gene No. 6620 [1, 3]: − | Behavior of gene caused by administration of chemical substance, Gene No. 6303 ([1]; gene group (C), Unigene No. Rn.123063, mRNA vs vehicle control group): + | Behavior of gene caused by administration of chemical substance, Gene No. 5878 ([1]; gene group (C), Unigene No. Rn.143213, mRNA vs vehicle control group): − | Behavior of gene caused by administration of chemical substance, Gene No. 1131 ([1]; gene group (C), Unigene No. Rn.144946, mRNA vs vehicle control group): − | Behavior of gene caused by administration of chemical substance, Gene No. 1562 ([1]; gene group (C), Unigene No. Rn.14744, mRNA vs vehicle control group): − | Behavior of gene caused by administration of chemical substance, Gene No. 1741 ([1]; gene group (C), Unigene No. Rn.1647, mRNA vs vehicle control group): + | Behavior of gene caused by administration of chemical substance, Gene No. 893 ([1]; gene group (C), Unigene No. Rn.164817, mRNA vs vehicle control group): − | Behavior of gene caused by administration of chemical substance, Gene No. 6026 ([1]; gene group (C), Unigene No. Rn.167685, mRNA vs vehicle control group): − | Behavior of gene caused by administration of chemical substance, Gene No. 154 ([1]; gene group (C), Unigene No. Rn.185941, mRNA vs vehicle control group): + | Behavior of gene caused by administration of chemical substance, Gene No. 1993 ([1]; gene group (C), Unigene No. Rn.18728, mRNA vs vehicle control group): − | Behavior of gene caused by administration of chemical substance, Gene No. 813 ([1]; gene group (C), Unigene No. Rn.201760, mRNA vs vehicle control group): + | Behavior of gene caused by administration of chemical substance, Gene No. 2494 ([1]; gene group (C), Unigene No. Rn.23969, mRNA vs vehicle control group): − | Behavior of gene caused by administration of chemical substance, Gene No. 2546 ([1]; gene group (C), Unigene No. Rn.24561, mRNA vs vehicle control group): − | Behavior of gene caused by administration of chemical substance, Gene No. 3776 ([1]; gene group (C), Unigene No. Rn.43232, mRNA vs vehicle control group): + | Behavior of gene caused by administration of chemical substance, Gene No. 3929 ([1]; gene group (C), Unigene No. Rn.4620, mRNA vs vehicle control group): − | Behavior of gene caused by administration of chemical substance, Gene No. 1119 ([1]; gene group (C), Unigene No. Rn.9757, mRNA vs vehicle control group): − | Behavior of gene caused by administration of chemical substance, Gene No. 6742 ([1]; gene group (C), Unigene No. Rn.9779, mRNA vs vehicle control group): + | Behavior of gene caused by administration of chemical substance, Gene No. 5634 ([1]; gene group (C), Unigene No. Rn.9862, mRNA vs vehicle control group): + | Behavior of gene caused by administration of chemical substance, Gene No. 5726 ([1]; gene group (D), Unigene No. Rn.9939, mRNA vs vehicle control group): − | Liver carcinogenicity (liver): Cr+ | Carcinogenicity (rodent): C+
